In patent US4000310A, “Pharmaceutical compositions containing 6-methyl-3,4-diphenyl-3,4,5,6-tetrahydro-2-pyrone or derivatives thereof” (Union Chimique Continentale-U.C.C, priority 1974, dated 1976):

Experiments:
Format in all cases: in vivo, mouse (male, Swiss NMRI stock)
mouse [1] = experiment: Hot-plate test on the mouse
Protocol: (§1) All the experiments described below were carried out using male rats weighing from 170 to 220 g (Wistar Af stock) and male mice weighing from 18 to 23 g (Swiss NMRI stock).
This test was applied to measure the time taken or animals to react to a painful stimulus. 12 animals were used per point. 15 Minutes after oral administration of MDTP (64 mg/kg) the time taken for mice exposed to the hot-plate to react (by licking their rear paws) was 5.9 seconds, whereas the time taken by the control group was 9.5 seconds (difference significant at the threshold of 0.01).
On the other hand, the effects on this test of an analgesic dose of morphine was not changed -- either by increasing or reducing them -- by MDTP at the same dose.

mouse [2] = experiment: Conditioned inhibition, 4 plate test, mouse
Protocol: as §1
A simple conditioned inhibition test was used, the 4 plate test (ARON an Coll, Neuropharmacology 1971, 10, 459-470).

mouse [3] = experiment: Observation of the animals, mouse
Protocol: as §1
All the experiments took place in a laboratory with a constant temperature (22° ± 1° C).
All the experiments were carried out blind (without the experimenter knowing, at the time of the tests, which animals had received the substance presumed active).
Unless otherwise stated, 10 animals were always used per point.

mouse [4] = experiment: Interaction with electric shocks; conditions: mouse, 16, 32, 64 or 128 mg/kg oral 60 min before electric shock
Protocol: as §1

mouse [5] = experiment: Motor activity in the mouse (actimeters with photoelectric cells); conditions: for motor activity relative to the control group: 64 mg/kg oral
Protocol: as §1
Motor activity was determined using actimeters with photoelectric cells (Boissier and Simon, Arch. int. Pharmacodyn., 1965, 158, 212-221). A minimum of 12 animals were always used per point.
a. MDTP is administered orally at variable times before activity is measured.
b. When administered orally 30 minutes before the actograph is taken, MDTP increases the motor activity of mice.
c. When administered orally immediately before the actograph is taken, MDTP (128 mg/kg) brings a marked increase in the motor activity of mice up to the 150th minute (Table I).

mice = experiment: Test for antireserpine action, mice; conditions: mice, 8, 16, 32 and 64 mg/kg oral; reserpine 2.5 mg/kg i.p. 4 hours before
Protocol: as §1

CC1CC(c2ccccc2)C(c2ccccc2)C(=O)O1 (stereo not shown) [MDTP, 6-methyl-3,4-diphenyl-3,4,5,6-tetrahydro-2-pyrone]
time taken to react (licking rear paws) on hot-plate (mouse [1]; 64 mg/kg oral, 15 min after, control 9.5 seconds, significant at 0.01): 5.9 s | change in effects of an analgesic dose of morphine on hot-plate test (mouse [1]; MDTP at the same dose): not changed | change in conditioned inhibition (mouse [2]; mouse, 4, 8, 16, 32, 64 and 128 mg/kg): no change was observed in conditioned inhibition | performance of the animals in 4 plate test (mouse [2]; mouse, 4 to 128 mg/kg): a slight increase in the performance of the animals | diameter of the pupils, rectal temperature (mouse [3]; doses below toxic level): no change in diameter of the pupils or the rectal temperature | motor incoordination, abnormal or stereotyped movements (mouse [3]; doses below toxic level): not accompanied by motor incoordination or by abnormal or stereotyped movements | hyperthermia (mouse [3]; doses very close to lethal level): moderate hyperthermia | toxic signs (mouse [3]; in vivo): tremors, hyperreactivity to very intense stimuli, interaggressiveness and convulsive phenomena with the rear paws stretched | excitation on observation (mouse [3]; oral or intraperitoneal, from 16 mg/kg, below toxic level): slight excitation is observed with increased reaction to touching or to sound stimuli | minimal effective dose (mouse [3]; oral or intraperitoneal, read-out: dose from which slight excitation is observed): 16 mg/kg | duration or form of convulsive attacks (mouse [4]): did not affect either the duration or the form of the convulsive attacks | mortality after the attack (mouse [4]): did not lead to any increase in mortality after the attack | motor activity relative to the control group (mouse [5]; 15 min pretreatment): 221% | motor activity relative to the control group (mouse [5]; 30 min pretreatment): 192% | motor activity relative to the control group (mouse [5]; 60 min pretreatment): 161% | motor activity relative to the control group (mouse [5]; 120 min pretreatment): 136% | Number of bars passed over by mice, 150 to 180 min (mouse [5]; 128 mg/kg orally, control group 8): 25 | Number of bars passed over by mice, 60 to 90 min (mouse [5]; 128 mg/kg orally, control group 12): 244 | Number of bars passed over by mice, 120 to 150 min (mouse [5]; 128 mg/kg orally, control group 14): 66 | Number of bars passed over by mice, 90 to 120 min (mouse [5]; 128 mg/kg orally, control group 15): 99 | Number of bars passed over by mice, 30 to 60 min (mouse [5]; 128 mg/kg orally, control group 82): 428 | Number of bars passed over by mice, 0 to 30 min (mouse [5]; 128 mg/kg orally, control group 390): 846 | minimal effective dose (mouse [5]; 0.5 h, mouse, oral, 30 min before actograph, read-out: dose from which increase in motor activity becomes significant): 32 mg/kg | dose dependence of increase in motor activity (mouse [5]; mouse, oral, 30 min before actograph): proportional to the dose administered | change in reserpine-induced hypothermia or palpebral ptosis (mice): did not produce any change in the hypothermia or palpebral ptosis
